In paper PMC10779255, “Novel Hydroxamic Acids Containing Aryl-Substituted 1,2,4- or 1,3,4-Oxadiazole Backbones and an Investigation of Their Antibiotic Potentiation Activity” (International Journal of Molecular Sciences, 2023):
“Also recorded” adds a separate entry of the source.

Experiments:
[1] = Cytotoxicity assay (Alamar Blue); assay type: cell-based; settings: human, HEK293 cells, 72 h exposure, mean ± SD, at least 3 independent experiments
Procedure: The HEK293 cell line was obtained from the ECACC (European Collection of Authenticated Cell Cultures, cat. 85120602, Salisbury, UK). The cells were grown in monolayer culture in Dulbecco’s Modified Eagle Medium (DMEM) (PanEco, Moscow, Russia) supplemented with 2 mM of L-glutamine, 1% penicillin/streptomycin (Capricorn Scientific, Ebsdorfergrund, Germany), and 10% heat-inactivated fetal bovine serum (HyClone, Cytiva, Pasching, Austria) in a humidified atmosphere of 5% CO2 and at 37 °C (Binder, Tuttlingen, Germany). For analysis, the HEK293 cells were seeded into a 96-well plate (Corning Incorporated, Corning, NY, USA) in 100 μL of complete culture medium at a final concentration of 1 × 10^4 cells/well and cultured for 24 h for proper attachment. Subsequently, the medium was removed, and cells were exposed to the test inhibitor with different concentrations for 72 h in 100 μL of fresh complete culture medium. The sensitivity of the cells to test inhibitor molecules was detected using the vital dye Alamar Blue (Invitrogen, Carlsbad, CA, USA). The Alamar Blue assay was performed according to the procedure described by O’Brien et al.. After incubation with test inhibitor molecules, 10 μL of Alamar Blue reagent was added to each well, cell culture plates were returned to a humidified incubator, and the fluorescence was read after 3 h. The plates were exposed to an excitation wavelength of 545 nm, and the emission at 600 nm was measured with the CLARIOstar Plus (BMG Labtech, Ortenberg, Germany, Software Version 5.70 R2). To determine corresponding 50% cellular cytotoxicity (CC50) values, a four-parameter sigmoidal fit curve model (GraphPad Prism 8 software) was used to measure the data.

E. coli MG1655 = assay: Growth curves of E. coli MG1655 with antibiotics, with or without LpxC inhibitors (antibiotic potentiation); assay type: cell-based, Escherichia coli; settings: for Activity: combined action together with the antibiotic, marking used for QSAR; for potentiation of kanamycin (sensitivity of cells): kanamycin 0.62 μM; for potentiation of kanamycin (sensitivity of cells) / potentiation of rifampicin (sensitivity of cells): inhibitor 50 or 100 µM; for potentiation of kanamycin (sensitivity of cells) / potentiating activity with nalidixic acid (growth inhibition) / potentiation of rifampicin (sensitivity of cells): OD600 growth curves; for potentiating activity with nalidixic acid (growth inhibition): nalidixic acid 17.22 μM, inhibitor 50–100 µM; for potentiation of rifampicin (sensitivity of cells): rifampicin 6.08 μM; on Activity: key: active (1); inactive (0)
Procedure: (§1) Escherichia coli strain MG1655 and Pseudomonas aeruginosa strain ATCC 27853 were obtained from the American Type Culture Collection (ATCC; Rockville, MD, USA). Subculturing and inoculum preparation were prepared according to the Clinical and Laboratory Standards Institute (CLSI) recommended method, M7-A9 [42], using MHA and MHB.
Growth curves were obtained with a Bioscreen C automated growth analysis system. Cultures of E. coli MG1655 were grown overnight at 37 °C, diluted 1:100 in fresh medium, inoculated into honeycomb wells in triplicate, and grown at 37 °C with maximum shaking using the platform of the Bioscreen C instrument. […] OD600 values were recorded automatically at specified times, and the means of the triplicate cultures were plotted.

P. aeruginosa ATCC 27853 = assay: MIC (broth microdilution) and growth curves of antibiotics in combination with 9c or 9d; assay type: cell-based, Pseudomonas aeruginosa; settings: 24 h, broth microdilution
Procedure: as §1
Minimum inhibitory concentrations (MICs) for rifampicin and nalidixic acid were determined via the modified broth microdilution method in triplicate according to CLSI guidelines M7-A9 and M100-A30 [43]. The antibiotics were serially diluted twofold in 100 μL of MHB. The bacteria inoculum was 100 μL of a 1.0 × 10^6 CFU/mL dilution in MHB. MICs for antibiotics in the presence of 9c or 9d were determined with the same method.
MIC endpoints were read after 24 h of incubation with an iMark microplate absorbance reader (Bio-Rad, Hercules, CA, USA). Growth curves of P. aeruginosa ATCC 27853 in the presence of rifampicin/nalidixic acid and 9c/9d were obtained using a multifunction microplate reader, SuperMax 3100 (ShanghaiFlash, Shanghai, China). Cells were grown in triplicate at 37 °C with aeration.

SMILES	melting point	CC50 at 72 h [1]	Activity (E. coli MG1655)	potentiation of kanamycin (sensitivity of cells) (E. coli MG1655)	potentiating activity with nalidixic acid (growth inhibition) (E. coli MG1655)	potentiation of rifampicin (sensitivity of cells) (E. coli MG1655)	MIC of antibiotic alone (P. aeruginosa ATCC 27853)
O=C(Cc1noc(-c2ccc(Cl)cc2)n1)NO [Compound 23a]	174 °C (dec.)	112 ± 18.6 µM	1	significantly increased the sensitivity	inhibited bacterial growth less effectively; also recorded: less effective	significantly increased the sensitivity	
O=C(Cc1noc(-c2cccc(Cl)c2)n1)NO [Compound 23c]	146 °C (dec.)	143 ± 3.84 µM	1	significantly increased the sensitivity	inhibited bacterial growth less effectively; also recorded: less effective	significantly increased the sensitivity	
Cc1cc(F)ccc1-c1nnc(C(=O)NO)o1 [Compound 30c, 5-(4-Fluoro-2-methylphenyl)-N-hydroxy-1,3,4-oxadiazole-2-carboxamide]	259.6 °C (dec.)	> 200 µM	0				
O=C(CCc1nc(-c2ccc(OC(F)(F)F)cc2)no1)NO [Compound 17b]	120 °C (dec.)	42.4 ± 4.58 µM	0				
O=C(NO)c1cccc(-c2nc(-c3ccc(OC(F)(F)F)cc3)no2)c1 [Compound 14b]	191 °C (dec.)	6.39 ± 1.32 µM	0				
O=C(CCc1nc(-c2c(F)cccc2F)no1)NO [Compound 17a]	99 °C (dec.)	30.8 ± 3.71 µM	0				
Cc1cccc(-c2noc(C(=O)NO)n2)c1 [Compound 4d]	106 °C (dec.)	457 ± 18.2 µM	0				
O=C(NO)c1cccc(-c2nc(-c3cc(F)c(F)c(F)c3)no2)c1 [Compound 14c]	188.5 °C (dec.)	4.53 ± 1.22 µM	0				
O=C(NO)c1ccc(-c2nc(-c3ccccc3)no2)cc1 [Compound 14e]	265.4 °C (dec.)	15 ± 0.53 µM	0				
O=C(NO)c1nc(-c2c(F)cccc2F)no1 [Compound 4a]	117.4 °C (dec.)	> 500 µM	0				
CO[C@H]1/C=C/O[C@@]2(C)Oc3c(C)c(O)c4c(O)c(c(/C=N/N5CCN(C)CC5)c(O)c4c3C2=O)NC(=O)/C(C)=C\C=C\[C@H](C)[C@H](O)[C@@H](C)[C@@H](O)[C@@H](C)[C@H](OC(C)=O)[C@@H]1C [rifampicin, reference compound]							4.86 µM
O=C(Cc1nc(-c2ccc(OC(F)(F)F)cc2)no1)NO [Compound 9b]	177 °C (dec.)	108 ± 23.9 µM	0				
O=C(NO)c1nc(-c2ccc(I)cc2)no1 [Compound 4f]	181.3 °C (dec.)	367 ± 53.9 µM	0				
O=C(CCc1nc(-c2cc(F)c(F)c(F)c2)no1)NO [Compound 17c]	122 °C (dec.)	59.2 ± 7.27 µM	0				
O=C(Cc1noc(-c2ccc(I)cc2)n1)NO [Compound 23b]	211.6 °C (dec.)	169 ± 22.5 µM	0				
O=C(Cc1nc(-c2c(F)cccc2F)no1)NO [Compound 9a]	149.7 °C (dec.)	188 ± 31.2 µM	0				
O=C(NO)c1ccc(-c2nc(-c3ccc(OC(F)(F)F)cc3)no2)cc1 [Compound 14d]	236 °C (dec.)	5.28 ± 1.05 µM	0				
O=C(NO)c1cccc(-c2nc(-c3c(F)cccc3F)no2)c1 [Compound 14a]	204.2 °C (dec.)	25.5 ± 3.11 µM	0				
O=C(NO)c1nnc(-c2ccc(I)cc2)o1 [Compound 30a, N-Hydroxy-5-(4-iodophenyl)-1,3,4-oxadiazole-2-carboxamide]	184.4 °C (dec.)	62.2 ± 9.88 µM	0				
O=C(Cc1noc(-c2cccc(I)c2)n1)NO [Compound 23d]	156.3 °C (dec.)	171 ± 22.9 µM	0				
COc1ccc(-c2nnc(C(=O)NO)o2)cc1OC [Compound 30f, 5-(3,4-Dimethoxyphenyl)-N-hydroxy-1,3,4-oxadiazole-2-carboxamide]	130.7 °C (dec.)	478 ± 50.5 µM	0				
O=C(NO)c1nc(-c2cc(F)c(F)c(F)c2)no1 [Compound 4c]	133.6 °C (dec.)	> 500 µM	0				
O=C(NO)c1nnc(-c2cccc(I)c2)o1 [Compound 30b, N-Hydroxy-5-(3-iodophenyl)-1,3,4-oxadiazole-2-carboxamide]	274.9 °C (dec.)	> 200 µM	1	not to kanamycin	inhibited bacterial growth less effectively; also recorded: weak potentiating activity	significantly increased the sensitivity	
O=C(NO)c1cccc(-c2noc(-c3ccccc3F)n2)c1 [Compound 26]	199.3 °C (dec.)	21.7 ± 3.43 µM	0				
COc1ccc(-c2noc(C(=O)NO)n2)cc1 [Compound 4e]	144 °C (dec.)	> 250 µM	0				
Cc1cccc(-c2noc(CCC(=O)NO)n2)c1 [Compound 17d]	115.8 °C (dec.)	21.3 ± 2.53 µM					
COc1ccc(-c2nnc(C(=O)NO)o2)c(OC)c1 [Compound 30d, 5-(2,4-Dimethoxyphenyl)-N-hydroxy-1,3,4-oxadiazole-2-carboxamide]	197.3 °C (dec.)	> 600 µM	0				
O=C(NO)c1nc(-c2ccc(OC(F)(F)F)cc2)no1 [Compound 4b]	108.6 °C (dec.)	380 ± 10.2 µM	0				
COc1cccc(-c2nnc(C(=O)NO)o2)c1OC [Compound 30e, 5-(2,3-Dimethoxyphenyl)-N-hydroxy-1,3,4-oxadiazole-2-carboxamide]	166.7 °C (dec.)	770 ± 58.4 µM	0				
CCn1cc(C(=O)O)c(=O)c2ccc(C)nc21 [nalidixic acid, reference compound]							17.22 µM
